Here are results for one compound from US9114086B2, “Coated tablets of eszopiclone” (Sunovion Pharmaceuticals Inc., priority 2009, dated 2015).

SMILES strings stand for the structures.

The nature of data set [1]: Instantaneous dissolution of coated tablets in 5% human saliva solution, LC/MS/MS. It is filed as physicochemical. From the text:
A typical procedure for preparing the instantaneous dissolution solutions of coated tablets is described as follows: a tablet comprising a core and a film coating—in this case a coated eszopiclone tablet—is randomly selected, and then placed into a basket sinker (e.g., Hanson Research Part # ENMISC, BSK008-JP 8 mesh, 0.76″ L×0.41″ W) with long handle (made from stainless steel tubing). The basket is then immersed in dissolution diluent (e.g., 5% human saliva solution) in vial 1 for 2-5 seconds, then moved to vial 2 for 2-5 seconds dipping and so on with the same tablet. The dissolution diluents (e.g., 5% human saliva solution in water) can be prepared by mixing thoroughly about 50 mL of normal human saliva and about 950 mL of water in a suitable container. About 5 mL of the 5% human saliva solution is then pipetted into several scintillation vials (approximately 20 mL volume). This procedure has been employed with tablets coated with about 2-4% coating by weight
Alternatively, the dipping experiment described above may be carried out by immersing the tablet in the basket in dissolution diluents (e.g., about 5% human saliva solution in water) in vial 1, moving the basket up and down for about 2-5 seconds at a speed of approximate 1 dip every two seconds; remove the basket from the diluent; take a sample of the diluent; re-immerse the tablet in the same vial. Continue the experiment similarly to collect samples until the tablet disintegrates or the preselected time course is completed, whichever comes first. In this embodiment, a new tablet is used in each vial. The experiment is repeated as described for additional nine or ten tablets (total of 10 tablets). The concentration of active ingredient, e.g., eszopiclone, in the sample solutions is then determined using LC/MS/MS (ESI mode, positive MRM scan type). The dissolution instantaneous profile of the tablets is constructed by plotting logarithmic concentration of eszopiclone versus time in seconds.
Another typical procedure for preparing the instantaneous dissolution solutions of coated tablets is described as follows: a number of tablets comprising a core and a film coating—in this case coated eszopiclone tablets—are transferred into basket sinkers and into a series of vials containing the dissolution diluents. The basket is then immersed in dissolution diluents (e.g., 5% human saliva solution in water) in vial 1 for 5 seconds, in vial 2 for 10 seconds, in vial 3 for 15 seconds dipping and so on with the series of tablets. The dissolution diluents (e.g., 5% human saliva solution in water) can be prepared by mixing thoroughly 50 mL of normal human saliva and 950 mL of water in a suitable container. About 5 mL of the 5% human saliva solution is then pipetted into several scintillation vials (approximately 20 mL volume). This procedure has been employed with tablets coated with 3-8% coating by weight.
In each scenario above, the concentration of core material, e.g., eszopiclone, the active ingredient in the sample solutions, is determined using LC/MS/MS (ESI mode, positive MRM scan type). The dissolution instantaneous profile of the tablets is constructed by plotting logarithmic concentration of eszopiclone versus time in seconds.
Described herein are instantaneous dissolution methods comprising a step using a LC/MS/MS technique to measure the concentration of the active ingredient in the instantaneous dissolution solution. Specifically, the LC/MS/MS procedure includes: centrifuge samples from above instantaneous dissolution solution at 6000×g for 5 minutes (if sample appears cloudy) to obtain clear solution; take out supernatant or clear solution and load into HPLC auto samplers. […]

Data set [2] can be described thus: Sample solution stability (short term), HPLC-MS/MS method validation. It is filed as physicochemical. The note with it: stored at room temperature. On the procedure: Described herein are instantaneous dissolution methods comprising a step using a LC/MS/MS technique to measure the concentration of the active ingredient in the instantaneous dissolution solution. Specifically, the LC/MS/MS procedure includes: centrifuge samples from above instantaneous dissolution solution at 6000×g for 5 minutes (if sample appears cloudy) to obtain clear solution; take out supernatant or clear solution and load into HPLC auto samplers. If the concentration of the active ingredient is above the upper calibration range (100 ng/mL), the sample solution will go through further dilution, for instance, by pipetting 100 μL of the centrifuged sample solution into 4.9 mL of sample diluents; If dilution sample is still above the calibration range, a serial dilution can be made with the dilution solution containing Internal Standard. Final diluted sample concentration should fall into the calibration range.
A summary of the HPLC-MS/MS method validation results can be found in the table below: […]

For `CN1CCN(C(=O)O[C@H]2c3nccnc3C(=O)N2c2ccc(Cl)cn2)CC1` [Eszopiclone, (S)-(6-(5-chloro-2-pyridyl)-5-[(4-methyl-1-piperazinyl)carbonyloxy]-7-oxo-6,7-dihydro-5H-pyrrolo[3,4-b]pyrazine)], the “Mean, % dissolved results” value was 5.317% in data set [1] (Time 5 seconds); 6.875% in data set [1] (Time 10 seconds); 7.461% in data set [1] (Time 15 seconds); 14.144% in data set [1] (Time 20 seconds); 12.222% in data set [1] (Time 25 seconds); 16.625% in data set [1] (Time 30 seconds). Moreover, the “Mean, % dissolved results” value in data set [1] (Time 35 seconds) is 22.404%; in data set [1] (Time 40 seconds), 14.658%; in data set [1] (Time 45 seconds) it was 14.989%; in data set [1] (Time 50 seconds), 12.477%. Further, the “Sample solution stability (short term)” value in data set [2] was “Sample solutions are stable for 8 hours”.
